Results: patent US8987195B2 (priority 2012, dated 2015)
Where two headings read alike, the source gives them in different places.

How the values were obtained:
[1] = molecular target: HCV NS3/4A protease genotype 1b (Hepatitis C virus genotype 1b, UniProt P26663); assay: HCV NS3/4A protease time-resolved fluorescence (TRF) assay, Ki against genotype 1b; type: biochemical
How it was run: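 Enzyme 0.2 nM 1b / 0.4 nM A156T / 0.025 nM 3a; 30 min preinc. w/ cpd; 25 nM TRF peptide; 2.5 h RT; ex 340/em 615 time-delayed; 4-param IC50 → Ki = IC50/(1+[S]/KM).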

HCV genotype 1b replicon = assay: HCV replicon assay, genotype 1b replicon EC50; type: cell-based, Hepatitis C virus; details: read-out: EC50 [gt-1b]
How it was run: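 Readout was replicon RNA copy number, by 32P-probe protection or TaqMan normalized to cellular cyclophilin A RNA, or luciferase activity for luciferase:Neo^r fusion lines. Cells were exposed to serially diluted compound for 24-48 hours without G418, then washed and lysed. EC50 derived from four-parameter fit relative to DMSO.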

[2] = IC50 [gt-1b], NS3/4A protease TRF assay, genotype 1b enzyme 0.2 nM
[3] = Hepatitis C virus, HCV replicon, genotype 1b
[4] = IC50 [gt-1b] (nM), NS3/4A genotype 1b, enzyme 0.2 nM
[5] = Hepatitis C virus, genotype 1b replicon

| Structure (SMILES) | IC50 [1, 2] [nM] | EC50 (HCV genotype 1b replicon; [3]) [nM] | IC50 [1, 4] [nM] | EC50 (HCV genotype 1b replicon; [5]) [nM] | further results |
| --- | --- | --- | --- | --- | --- |
| COCC1(S(=O)(=O)NC(=O)[C@@]23C[C@H]2/C=C\CCCCC[C@H](NC(=O)OCC2(C)CC2)C(=O)N2C[C@@]4(CCc5c(c(C(F)(F)F)nc6ccc(OC)cc56)O4)C[C@H]2C(=O)N3)CC1 [Example 494, (1-methylcyclopropyl)methyl [(2R,6S,12Z,13aS,14aR,16aS)-9′-methoxy-14a-({[1-(methoxymethyl)cyclopropyl]sulfonyl}carbamoyl)-5,16-dioxo-5′-(trifluoromethyl)-1,1′,2′,5,6,7,8,9,10,11,13a,14,14a,15,16,16a-hexadecahydrospiro[cyclopropa[e]pyrrolo[1,2-a][1,4]diazacyclopentadecine-2,3′-pyrano[2,3-c]quinolin]-6-yl]carbamate] | 0.018 | 1.73 | – | – | – |
| COCC(C)(C)OC(=O)N[C@H]1CCCCC/C=C\[C@@H]2C[C@@]2(C(=O)NS(=O)(=O)C2(C)CC2)NC(=O)[C@@H]2C[C@]3(CCc4c(c(C)nc5ccc(OC(F)(F)F)cc45)O3)CN2C1=O [Example 207, 1-methoxy-2-methylpropan-2-yl [(2R,6S,12Z,13aS,14aR,16aS)-5′-methyl-14a-{[(1-methylcyclopropyl)sulfonyl]carbamoyl}-5,16-dioxo-9′-(trifluoromethoxy)-1,1′,2′,5,6,7,8,9,10,11,13a,14,14a,15,16,16a-hexadecahydrospiro[cyclopropa[e]pyrrolo[1,2-a][1,4]diazacyclopentadecine-2,3′-pyrano[2,3-c]quinolin]-6-yl]carbamate] | – | – | 0.007 | 1.08 | – |
| Cc1nc2ccc(F)cc2c2c1O[C@]1(CC2)C[C@H]2C(=O)N[C@]3(C(=O)NS(=O)(=O)C4(C)CC4)C[C@H]3/C=C\CCCCC[C@H](NC(=O)OC3CCCC3)C(=O)N2C1 [Example 219, cyclopentyl [(2R,6S,12Z,13aS,14aR,16aS)-9′-fluoro-5′-methyl-14a-{[(1-methylcyclopropyl)sulfonyl]carbamoyl}-5,16-dioxo-1,1′,2′,5,6,7,8,9,10,11,13a,14,14a,15,16,16a-hexadecahydrospiro[cyclopropa[e]pyrrolo[1,2-a][1,4]diazacyclopentadecine-2,3′-pyrano[2,3-c]quinolin]-6-yl]carbamate] | – | – | 0.004 | 1.2 | – |
| COCCCOc1ccc2nc(C)c3c(c2c1)CC[C@]1(C[C@H]2C(=O)N[C@]4(C(=O)NS(=O)(=O)C5(C)CC5)C[C@H]4/C=C\CCCCC[C@H](NC(=O)OCC(C)(C)C)C(=O)N2C1)O3 [Example 453, 2,2-dimethylpropyl [(2R,6S,12Z,13aS,14aR,16aS)-9′-(3-methoxypropoxy)-5′-methyl-14a-{[(1-methylcyclopropyl)sulfonyl]carbamoyl}-5,16-dioxo-1,1′,2′,5,6,7,8,9,10,11,13a,14,14a,15,16,16a-hexadecahydrospiro[cyclopropa[e]pyrrolo[1,2-a][1,4]diazacyclopentadecine-2,3′-pyrano[2,3-c]quinolin]-6-yl]carbamate] | 0.017 | 1.78 | – | – | – |
| COc1ccc2c3c(c(C4CC4)nc2c1)O[C@]1(CC3)C[C@H]2C(=O)N[C@]3(C(=O)NS(=O)(=O)C4(C)CC4)C[C@H]3/C=C\CCCCC[C@H](NC(=O)CC(C)(C)C)C(=O)N2C1 (single isomer, unassigned) [Example 279] | – | – | – | – | IC50 ([1]; IC50 [gt-1b] (nM), NS3/4A genotype 1b, enzyme 0.2 nM, HCOOH salt): 0.051 nM; EC50 (HCV genotype 1b replicon; Hepatitis C virus, genotype 1b replicon, HCOOH salt): 22.3 nM |
| CCc1nc2ccc(OC)cc2c2c1O[C@]1(CC2)C[C@H]2C(=O)N[C@]3(C(=O)NS(=O)(=O)C4(C)CC4)C[C@H]3/C=C\CCCCC[C@H](NC(=O)c3sccc3F)C(=O)N2C1 [Example 490, (2R,6S,12Z,13aS,14aR,16aS)-5′-ethyl-6-{[(3-fluorothiophen-2-yl)carbonyl]amino}-9′-methoxy-N-[(1-methylcyclopropyl)sulfonyl]-5,16-dioxo-1,1′,2′,6,7,8,9,10,11,13a,14,15,16,16a-tetradecahydrospiro[cyclopropa[e]pyrrolo[1,2-a][1,4]diazacyclopentadecine-2,3′-pyrano[2,3-c]quinoline]-14a(5H)-carboxamide] | 0.017 | 0.464 | – | – | – |
| Cc1nc2ccccc2c2c1O[C@@]1(CC2)C[C@H]2C(=O)N[C@]3(C(=O)NS(=O)(=O)C4(C)CC4)C[C@H]3/C=C\CCCCC[C@H](NC(=O)OC(C)(C)C)C(=O)N2C1 [Example 75, tert-butyl [(2S,6S,12Z,13aS,14aR,16a5)-5′-methyl-14a-{[(1-methylcyclopropyl)sulfonyl]carbamoyl}-5,16-dioxo-1,1′,2′,5,6,7,8,9,10,11,13a,14,14a,15,16,16a-hexadecahydrospiro[cyclopropa[e]pyrrolo[1,2-a][1,4]diazacyclopentadecine-2,3′-pyrano[2,3-c]quinolin]-6-yl]carbamate] | – | – | 0.022 | 7.36 | – |
| CC(C)(C)OC(=O)N[C@H]1CCCCC/C=C\[C@@H]2C[C@@]2(C(=O)NS(=O)(=O)C2(C)CC2)NC(=O)[C@@H]2C[C@]3(CCc4c(c(C(F)(F)F)nc5ccc(OCCO)cc45)O3)CN2C1=O [Example 60, tert-Butyl ((2R,6S,13aS,14aR,16aS,Z)-9′-(2-hydroxyethoxy)-14a-(((1-methylcyclopropyl)sulfonyl)carbamoyl)-5,16-dioxo-5′-(trifluoromethyl)-1′,2′,3,5,6,7,8,9,10,11,13a, 14,14a,15,16,16a-hexadecahydro-1H-spiro[cyclopropa[e]pyrrolo[1,2-a][1,4]diazacyclopentadecine-2,3′-pyrano[2,3-c]quinolin]-6-yl)carbamate] | – | – | 0.009 | 1.23 | – |
| Cc1ccc2nc(C(F)(F)F)c3c(c2c1)CC[C@]1(C[C@H]2C(=O)N[C@]4(C(=O)NS(=O)(=O)C5(C)CC5)C[C@H]4/C=C\CCCCC[C@H](NC(=O)OCCN4CCCC4)C(=O)N2C1)O3 [Example 416, 2-(pyrrolidin-1-yl)ethyl [(2R,6S,12Z,13aS,14aR,16aS)-9′-methyl-14a-{[(1-methylcyclopropyl)sulfonyl]carbamoyl}-5,16-dioxo-5′-(trifluoromethyl)-1,1′,2′,5,6,7,8,9,10,11,13a,14,14a,15,16,16a-hexadecahydrospiro[cyclopropa[e]pyrrolo[1,2-a][1,4]diazacyclopentadecine-2,3′-pyrano[2,3-c]quinolin]-6-yl]carbamate] | 0.164 | 272 | – | – | – |
| CC1(OC(=O)N[C@H]2CCCCC/C=C\[C@@H]3C[C@@]3(C(=O)NS(=O)(=O)C3(C)CC3)NC(=O)[C@@H]3C[C@]4(CCc5c(c(C(F)(F)F)nc6ccccc56)O4)CN3C2=O)CC1 [Example 159, 1-methylcyclopropyl [(2R,6S,12Z,13aS,14aR,16aS)-14a-{[(1-methylcyclopropyl)sulfonyl]carbamoyl}-5,16-dioxo-5′-(trifluoromethyl)-1,1′,2′,5,6,7,8,9,10,11,13a,14,14a,15,16,16a-hexadecahydrospiro[cyclopropa[e]pyrrolo[1,2-a][1,4]diazacyclopentadecine-2,3′-pyrano[2,3-c]quinolin]-6-yl]carbamate] | – | – | 0.013 | 1.19 | – |
| Cc1nc2ccccc2c2c1O[C@]1(CC2O)C[C@H]2C(=O)N[C@]3(C(=O)NS(=O)(=O)C4(C)CC4)C[C@H]3/C=C\CCCCC[C@H](NC(=O)OC(C)(C)C)C(=O)N2C1 (stereo partly drawn) [Example 118, tert-butyl [(2S,6S,12Z,13aS,14aR,16aS)-1′-hydroxy-5′-methyl-14a-{[(1-methylcyclopropyl)sulfonyl]carbamoyl}-5,16-dioxo-1,1′,2′,5,6,7,8,9,10,11,13a,14,14a,15,16,16a-hexadecahydrospiro[cyclopropa[e]pyrrolo[1,2-a][1,4]diazacyclopentadecine-2,3′-pyrano[2,3-c]quinolin]-6-yl]carbamate] | – | – | 0.027 | – | EC50 (HCV genotype 1b replicon; genotype 1b replicon): 47.3 nM |
| CC1(S(=O)(=O)NC(=O)[C@@]23C[C@H]2/C=C\CCCCC[C@H](NC(=O)OC2CCCC2)C(=O)N2C[C@@]4(CCc5c(c(C6CC6)nc6ccc(F)cc56)O4)C[C@H]2C(=O)N3)CC1 [Example 145, cyclopentyl [(2R,6S,12Z,13aS,14aR,16aS)-5′-cyclopropyl-9′-fluoro-14a-{[(1-methylcyclopropyl)sulfonyl]carbamoyl}-5,16-dioxo-1,1′,2′,5,6,7,8,9,10,11,13a,14,14a,15,16,16a-hexadecahydrospiro[cyclopropa[e]pyrrolo[1,2-a][1,4]diazacyclopentadecine-2,3′-pyrano[2,3-c]quinolin]-6-yl]carbamate] | – | – | 0.006 | 1.16 | – |
| CCc1nc2ccc(OC)cc2c2c1O[C@]1(CC2)C[C@H]2C(=O)N[C@]3(C(=O)NS(=O)(=O)C4(C)CC4)C[C@H]3/C=C\CCCCC[C@H](NC(=O)c3ccc(C)s3)C(=O)N2C1 [Example 466, (2R,6S,12Z,13aS,14aR,16aS)-5′-ethyl-9′-methoxy-N-[(1-methylcyclopropyl)sulfonyl]-6-{[(5-methylthiophen-2-yl)carbonyl]amino}-5,16-dioxo-1,1′,2′,6,7,8,9,10,11,13a,14,15,16,16a-tetradecahydrospiro[cyclopropa[e]pyrrolo[1,2-a][1,4]diazacyclopentadecine-2,3′-pyrano[2,3-c]quinoline]-14a(5H)-carboxamide] | 0.041 | 1.62 | – | – | – |
